pEC50: −log10 of the molar value.
Columns and labels:
[1] = test system: ApoE−/− mice fed a high-cholesterol diet; experiment: Atherosclerosis-induced animal model (ApoE-/- mice fed a high-cholesterol diet); type: in vivo, mouse; settings: 20 mg/kg intraperitoneally every 2 days for 8 weeks
Experimental: Mouse experiments were performed in accordance with the ethical guidelines approved by the Institutional Animal Care and Use Committee of Yonsei University (IACUC-A-202208-1519-01). ApoE−/− mice were provided by Dr. Goo Taeg Oh (Ewha Womans University, Korea) and were housed in a pathogen-free system with a 12-hour light-dark cycle with free access to water and food. The mice were fed a high-cholesterol diet from 6 weeks after birth until the end of the experiment. At the end of the experiment, the mice were anesthetized with Avertin (2,2,2-tribromoethanol) and perfused with PBS through the left ventricle.
The outer membrane fat of the aorta isolated from the sacrificed animals was removed, dissected longitudinally, and fixed on a white silicone plate. After overnight fixation with 4% PFA, aortas were stained overnight with Oil Red O and washed with PBS. The heart and liver were then harvested and fixed overnight in 4% PFA and then placed in a 30% sucrose solution. After preparing tissues and preserving through cryopreservation (OCT) or paraffin embedding, sections were prepared for histologic analysis. For analysis of atherosclerotic lesions, the bottom of the heart, including the proximal aorta, was embedded in OCT medium, stained using the Oil Red O stain, and then quantified using the Image J software. […]

HUVECs [2] = experiment: Transmission electron microscopy of ER and mitochondria in HUVECs; type: cell-based, human; settings: CTS 5 μM; control group 61%
Text: First, HUVECs were imaged by transmission electron microscopy (TEM) to visualize the ER and mitochondria, and the ER-mitochondrial distance was observed. […] Increased contact between the ER and mitochondria can lead to cellular stress and dysfunction. CTS can help restore cellular homeostasis and prevent adverse effects associated with increased ER-mitochondrial interactions.

HYOU1 = target: T1, HYOU1 (Homo sapiens, UniProt Q9Y4L1); experiment: DARTS-western analysis in HUVEC lysate; type: binding; settings: dose-dependent, read-out: EC50 of resistance to degradation by Pronase
T1 construct: endogenous in cells; host or cells: HUVEC
T1 sequence (Q9Y4L1 33-999): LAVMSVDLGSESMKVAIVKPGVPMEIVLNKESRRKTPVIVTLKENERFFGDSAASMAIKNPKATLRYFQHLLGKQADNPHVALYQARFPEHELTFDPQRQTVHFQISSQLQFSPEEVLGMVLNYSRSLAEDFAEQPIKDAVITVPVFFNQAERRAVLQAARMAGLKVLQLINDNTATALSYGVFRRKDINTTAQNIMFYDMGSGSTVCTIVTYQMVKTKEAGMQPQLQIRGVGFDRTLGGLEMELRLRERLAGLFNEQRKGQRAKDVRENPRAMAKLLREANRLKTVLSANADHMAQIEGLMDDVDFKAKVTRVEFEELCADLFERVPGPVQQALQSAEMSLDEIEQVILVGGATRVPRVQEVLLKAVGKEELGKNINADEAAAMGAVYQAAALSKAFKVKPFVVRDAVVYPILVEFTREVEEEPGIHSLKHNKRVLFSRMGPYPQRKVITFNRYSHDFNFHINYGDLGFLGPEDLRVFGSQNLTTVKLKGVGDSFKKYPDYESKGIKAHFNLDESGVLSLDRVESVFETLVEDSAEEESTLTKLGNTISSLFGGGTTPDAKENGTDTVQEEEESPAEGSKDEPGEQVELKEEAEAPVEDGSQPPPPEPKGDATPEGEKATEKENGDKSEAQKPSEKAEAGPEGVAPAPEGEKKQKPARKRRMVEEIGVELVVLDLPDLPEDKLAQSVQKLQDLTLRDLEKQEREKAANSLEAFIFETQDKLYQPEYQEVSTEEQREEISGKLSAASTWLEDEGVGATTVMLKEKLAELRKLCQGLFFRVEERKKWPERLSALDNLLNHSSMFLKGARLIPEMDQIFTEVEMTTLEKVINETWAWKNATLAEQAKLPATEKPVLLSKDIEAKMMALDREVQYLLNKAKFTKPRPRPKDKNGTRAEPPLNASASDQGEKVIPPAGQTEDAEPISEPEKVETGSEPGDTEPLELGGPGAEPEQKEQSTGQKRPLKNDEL
Experimental: HepG2 or HUVECs (1×10^7 cells) were lysed by homogenization in PBS buffer containing a protease/phosphatase inhibitor cocktail (½ tablet, 25 mL; Pierce), and the concentration of total proteins was determined by BCA assay. All steps were performed on ice to avoid premature protein degradation. The cell lysate (final protein concentration: 1 mg/mL, 100 μL) was aliquoted into a 1.5-mL tube and incubated with 0.01 to 10 μM CTS (in 1 μL DMSO) for 3 hours at 4° C. with gentle stirring. Pronase (non-specific protease) was then added (final concentration: 1 μg/mL) and reaction was performed for 10 minutes. After adding a 6×SDS buffer, the Pronase reaction was stopped by heating for 7 minutes.
DARTS-western analysis was used to validate HYOU1 as a target protein of CTS in the lysate of HUVECs. […] In addition, […] to degradation by Pronase (protease) in a dose-dependent manner, with an EC50 value calculated to be about 1 μM (FIG. 5B).

p62, LC3B-II and α-SMA = experiment: Western blot of autophagy and smooth muscle cell proliferation markers in PAH cell model; type: cell-based, human; settings: TGF-β-stimulated PASMCs, vs control group
Experimental: Human pulmonary artery smooth muscle cells (PASMCs; 4-8 passages) were cultured in an SmGM2 basal medium (Lonza, CC-3181) containing 5% FBS, supplements (Lonza, CC-4149) and 1% antibiotics.
The cells were cultured in a chamber-type cell culture slide. When they reached 70% confluence, the medium was replaced with a medium containing 0.5% FBS and the cells were incubated for 4 hours to inhibit cell proliferation. The cells were then treated with DMSO and CTS (5 μM) while simultaneously stimulating with TGF-β (5 ng/ml) for 24 hours. The level of p62, LC3 and α-SMA was confirmed by western blot.

HUVECs [3] = experiment: Mitochondrial calcium assay (Rhod-2) in HUVECs; type: cell-based, human; settings: pretreated with xestospongin C, then treated with oxLDL
Experimental: To measure calcium content in mitochondria or cytosol, HUVECs were cultured overnight at a density of 1.5×10^4 cells/well in a chamber slide (8-well) and incubated with Rhod-2/AM (2 μM) (Invitrogen, R1244) or Fluo-4/AM (1 μM) (Invitrogen, F14201), respectively, for 30 minutes at room temperature. The cells were then incubated in a calcium-free Krebs-Ringer-HEPES buffer (pH 7.4) additionally for 30 minutes for de-esterification of the dye. Images were captured in real time using an LSM980 confocal microscope (Zeiss, Oberkochen, Germany).
In addition, it was investigated whether intracellular calcium was released from the ER and imported into the mitochondria in response to oxLDL. Specifically, it was confirmed that, when the HUVECs were treated with oxLDL along with the Rhod-2 dye, which is a marker of mitochondrial calcium, mitochondrial calcium level was increased. In contrast, when HUVECs were pretreated with xestospongin C, which is an IP3R antagonist, and then treated with oxLDL, there was no increase in the mitochondrial calcium level (FIG. 1D). This means that the oxLDL-induced increase in mitochondrial calcium is derived from the endoplasmic reticulum (ER).
Furthermore, in order to investigate whether change in the physical coupling between the ER and mitochondria affects communications between cell organelles, Ca^2+ transport from the ER to mitochondria was examined. […]

| Compound | body weight [1] | number of dots closer than 40 nm (ER-mitochondrial distance) (HUVECs [2]) [%] | pEC50 (HYOU1) | decrease of expression of autophagy and smooth muscle cell proliferation markers (p62, LC3B-II and α-SMA) | mitochondrial calcium level (Rhod-2) (HUVECs [3]) |
| --- | --- | --- | --- | --- | --- |
| C[C@H]1COC2=C1C(=O)C(=O)c1c2ccc2c1CCCC2(C)C [CTS, Cryptotanshinone] | did not affect | 37 | ~6.00 | approximately 40% | – |
| C1CCC[C@H]2CCCN3CC[C@@H](CCCCCC[C@@H]4CCCN5CC[C@@H](CC1)O[C@@H]45)O[C@@H]23 [xestospongin C] | – | – | – | – | no increase |

Source: patent publication US20250170093A1, “ENDOPLASMIC RETICULUM PROTEIN HYOU1-BINDING COMPOUND FOR INHIBITING ENDOPLASMIC RETICULUM-MITOCHONDRIAL INTERACTION AND USES THEREOF” (UIF (University Industry Foundation), Yonsei Univeristy, priority 2023, published 2025)
